The values that follow come from article PMC9921564, “Novel Indole-Containing Hybrids Derived from Millepachine: Synthesis, Biological Evaluation and Antitumor Mechanism Study” (Molecules, 2023).

A short description of data set [1]: metabolic stability in human liver microsomes. Format: in vitro ADME. On the procedure: Metabolic stability is one of the most important properties in drug development. In this study, commercially available human liver microsomes were used to evaluate the metabolic stability of compound 14b. After incubation with human liver microsomes at 37 °C in vitro for an indicated time in a buffer solution containing a NADPH regenerating system, the residue of 14b was monitored by HPLC. CA-4 was used as the reference compound. […] As well known, a short half-life means a low bioavailability in vivo and is required for frequent administration with a high dose, which might result in drug accumulation and may produce related toxicity.
Background: Microsomes from liver hold many membrane-bound enzymes, among them those of drug oxidation.

The test system of data set [2] is HCT-8/VCR (HCT-8 cell line resistant to vincristine). Kind of data set: CCK-8 cytotoxicity, HCT-8/VCR. The conditions noted are these: Homo sapiens, 48 h, CCK-8, vincristine-resistant, read-out: IC50, Mean ± SE, HCT-8/VCR. Format: cell-based. The protocol:
(§1) Besides the high cytotoxicity, drug resistance is the other limiting factor of chemotherapeutics. In this study, the cytotoxicities of compound 14b towards five kinds of drug-resistant cancer cell lines were also evaluated. Except three kinds of cell lines that are resistant to three drugs commonly used in clinical practice, two kinds of cell lines that are resistant to MTAs were also evaluated.
(§2) A549 (non-small-cell-lung cancer cell line), Caski (human epithelial cervical cancer cell line), HepG2 (human liver carcinoma cell line), MCF-7 (human breast carcinoma cell line), C42B (human prostate cancer line C42B), L-02 (human normal hepatocytes), RWPE-1 (human prostate epithelial cells) and MCF-10A (human normal mammary epithelial cells) were obtained from National Collection of Authenticated Cell Cultures (Shanghai, China). […]
(§3) After 24 h, the medium containing different concentrations of tested compounds were added for another 48 h. […] The optical density was recorded with a microplate reader at 570 nm (Thermo Scientific, Varioskan LUX). All the experiments were repeated independently at least three times and the IC50 values were calculated […]

The target in another data set is T1, tubulin (Sus scrofa, UniProt P02554).
T1 construct: purchased cytoskeleton, Inc. BK011P
Kind of data set: in vitro tubulin polymerization inhibition assay. It is filed as biochemical. On the procedure:
Tubulin–microtubule homeostasis is crucial for cell mitosis.
Figure 2 Effect of compound 14b on tubulin. […] The experiments were performed at least three times, and representative images are shown. Scale bars are 10 μm. […] The backbone of tubulin is shown in ribbon representation (α-tubulin, yellow; β-tubulin, green). […] The data were shown as mean ± SE (standard error) of at least three independent experiments.
S Ⅳ. Biological evaluation methods
The cells grown in logarithmical phase were seeded in 96-well plates with the density of 5×10^3/well.
After 24 h, the medium containing different concentrations of tested compounds were added for another 48 h. Then, CCK-8 reagents were added to cells and continued to culture for 2 h. The optical density was recorded with a microplate reader at 570 nm (Thermo Scientific, Varioskan LUX). All the experiments were repeated independently at least three times and the IC50 values were calculated […]
S2. In vitro tubulin polymerization inhibition assay
The in vitro tubulin polymerization inhibition assay was conducted according to the manufacturer ’s instruction (cytoskeleton, cat. no. BK011P). Briefly, 5 μL of the tested compounds at the indicated

The test system of data set [3] is A2780/TAX (A2780 cell line resistant to taxol). As to the kind of experiment: CCK-8 cytotoxicity, A2780/TAX. It is filed as cell-based. The following applies: Homo sapiens, 48 h, CCK-8, taxol-resistant, read-out: IC50, Mean ± SE, A2780/TAX. On the procedure: as §1, §2, §3

The structures appear in SMILES notation.

T1 sequence (P02554 whole entry): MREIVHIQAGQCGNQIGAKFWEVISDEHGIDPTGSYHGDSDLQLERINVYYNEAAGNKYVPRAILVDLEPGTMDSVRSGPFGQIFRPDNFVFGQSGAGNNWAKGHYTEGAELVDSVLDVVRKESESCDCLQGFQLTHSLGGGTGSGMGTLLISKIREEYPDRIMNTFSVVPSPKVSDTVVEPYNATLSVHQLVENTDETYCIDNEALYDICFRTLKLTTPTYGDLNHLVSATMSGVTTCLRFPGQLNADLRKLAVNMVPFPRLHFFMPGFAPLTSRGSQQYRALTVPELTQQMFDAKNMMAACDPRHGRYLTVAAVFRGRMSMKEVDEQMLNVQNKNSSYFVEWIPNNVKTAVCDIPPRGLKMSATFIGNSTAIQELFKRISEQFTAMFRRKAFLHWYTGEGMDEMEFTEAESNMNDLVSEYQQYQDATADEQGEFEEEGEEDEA
T1 sequence (P02550 whole entry partner): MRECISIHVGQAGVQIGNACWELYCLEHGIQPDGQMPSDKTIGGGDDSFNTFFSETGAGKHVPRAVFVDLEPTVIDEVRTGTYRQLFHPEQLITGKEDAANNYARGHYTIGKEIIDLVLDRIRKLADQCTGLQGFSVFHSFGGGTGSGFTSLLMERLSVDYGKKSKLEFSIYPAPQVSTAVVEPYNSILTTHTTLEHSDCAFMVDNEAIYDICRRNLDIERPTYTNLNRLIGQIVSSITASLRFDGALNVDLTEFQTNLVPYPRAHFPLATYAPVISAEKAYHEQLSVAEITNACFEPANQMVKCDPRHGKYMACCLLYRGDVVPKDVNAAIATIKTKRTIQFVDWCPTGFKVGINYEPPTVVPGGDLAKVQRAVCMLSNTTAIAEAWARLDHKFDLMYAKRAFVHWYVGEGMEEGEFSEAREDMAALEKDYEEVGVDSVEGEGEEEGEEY

By half-life is commonly meant the time needed for the level to fall by half in the phase considered. The low end stands for fast loss, the high end for slow loss. A word on the fraction remaining: it is what is left of the initial amount, in per cent. Low readings indicate a greater loss, high ones greater stability. Consider `COc1ccc(C(=O)c2ccc3c(ccn3C)c2)c2c1C=CC(C)(C)O2` [compound 14b, (5-methoxy-2,2-dimethyl-2H-chromen-8-yl)(1-methyl-1H-indol-5-yl)methanone], for which, in data set [1], the half-life was found to be 198 min. The “metabolic stability” value in data set [1] is given as “relatively stable in the liver microsomes”. The Remaining% in data set [1] (37 °C, NADPH regenerating system, 180 min) was found to be 56.17%. In data set [1] (human, liver microsomes, 37 °C, NADPH regenerating system, 30 min), this compound came in with a share remaining at 0.5 h of 96.2%. Further, the fraction remaining at 1 h in data set [1] (human, liver microsomes, 37 °C, NADPH regenerating system, 60 min) was determined as 91.4%. The compound also had an amount remaining at 1.5 h in data set [1] (human, liver microsomes, 37 °C, NADPH regenerating system, 90 min) of 84.1%. Besides, the amount remaining at 2 h in data set [1] (human, liver microsomes, 37 °C, NADPH regenerating system, 120 min) was determined as 74.5%. In data set [1] (human, liver microsomes, 37 °C, NADPH regenerating system, 150 min), this compound showed an amount remaining at 2.5 h of 67.8%. Moreover, the amount remaining at 3 h in data set [1] (human, liver microsomes, 37 °C, NADPH regenerating system, 180 min) was 50.6%. This compound came in with a fraction remaining at 4 h in data set [1] (human, liver microsomes, 37 °C, NADPH regenerating system, 240 min) of 43.4%. Also, the IC50 in data set [2] was found to be 122 ± 36 nM; against tubulin (in vitro, area under the curve), 2070 ± 150 nM; in data set [3] it was 42 ± 11 nM. Besides, the “effect on tubulin polymerization” value at tubulin (5 μM, Figure 2A,B) was “inhibited tubulin polymerization in a colchicine-like manner”.
